{"source": "paper PMC9530963", "about": "“A cathelicidin antimicrobial peptide from Hydrophis cyanocinctus inhibits Zika virus infection by downregulating expression of a viral entry factor” (The Journal of Biological Chemistry, 2022)", "key": {"ZIKV [1]": {"test_system": "ZIKV", "assay": "ZIKV replication stage, A549 cells (peptide added after infection)", "type": "cell-based, ZIKV strain PRVABC59", "settings": "2.5 μM after ZIKV infection, 48 h; NS3 Western blot", "protocol": "B–I, Vero (B–G), A549 (H), or U251 (I) cells were incubated with ZIKV (MOI = 1) at 37 °C for 2 h, washed with PBS, and transferred with fresh DMEM containing 2% FBS and Hc-CATH (2.5 μM), AC5 (2.5 μM), LL-37 (2.5 μM), or PBS (solvent of peptide). After culture at 37 °C for 48 h, intracellular ZIKV RNA (B), NS3 protein (C, D, H, and I), E protein level (E, the scale bar represents 50 μm), and extracellular ZIKV titer (F and G) were detected by qPCR, Western blot, immunofluorescence staining, and plaque-forming assay, respectively.\nVero cells were incubated with ZIKV (MOI = 1) at 37 °C for 2 h, washed three times with PBS, and transferred with fresh DMEM containing 2% FBS and Hc-CATH (2.5 μM), AC5 (2.5 μM), LL-37 (2.5 μM), or PBS. After culture at 37 °C for 48 h, intracellular ZIKV RNA, NS3 protein, E protein, and extracellular ZIKV titer were detected by qPCR, WB, IF, and plaque-forming assay, respectively. The effect of Hc-CATH on ZIKV replication stage was further tested in A549 and U251 cells under the same condition, and intracellular ZIKV NS3 protein was detected by WB."}, "TYRO3": {"test_system": "TYRO3", "assay": "TYRO3 level in Vero cells (Western blot)", "type": "cell-based, Chlorocebus aethiops", "settings": "6, 12, and 24 h post Hc-CATH addition", "protocol": "Figure 3 Hc-CATH downregulates AXL in Vero cell.A, schematic diagram of B and C. B, Vero cells were seeded in 24-well plates (5 × 10^4 cells/well) and cultured in DMEM containing 2% FBS. Hc-CATH (1.25, 2.5, and 5 μM), AC5 (2.5 μM), LL-37 (2.5 μM), or same volume of PBS (peptide solvent) was added to cells. After culture at 37 °C for 6, 12, and 24 h, the levels of ZIKV entry factors, including AXL, TYRO3, and TIM-1, were tested by Western blot, respectively. C, Vero cells were seeded in 8-well cover slip chambers (5 × 10^4 cells/well) and cultured in DMEM containing 2% FBS. Hc-CATH (1.25, 2.5, and 5 μM), AC5 (2.5 μM), LL-37 (2.5 μM), or same volume of PBS (peptide solvent) was added to cells. After culture at 37 °C for 24 h, the level of AXL was tested by immunofluorescence staining. The scale bar represents 50 μm. D, schematic diagram of E. E, Vero cells were seeded in 24-well plates (5 × 10^4 cells/well) and cultured in DMEM containing 2% FBS. Hc-CATH (1.25, 2.5, and 5 μM), AC5 (2.5 μM), LL-37 (2.5 μM), or same volume of PBS (peptide solvent) was added to cells and incubated at 37 °C for 2 h. […] Ratio of AXL to β-actin was analyzed by ImageJ.\nVero cells were incubated with Hc-CATH (1.25, 2.5, and 5 μM), AC5 (2.5 μM), LL-37 (2.5 μM), or PBS (solvent of peptide). […] The levels of ZIKV entry factors, including AXL, TYRO3, and TIM-1, were detected by WB analysis. […]"}, "ZIKV [2]": {"test_system": "ZIKV", "assay": "Susceptibility of A549 cells to ZIKV (peptide pretreatment)", "type": "cell-based, ZIKV strain PRVABC59", "settings": "1.25, 2.5, and 5 μM, 2 h before ZIKV MOI = 1; 24 h; Western blot", "protocol": "Figure 4 Hc-CATH downregulates AXL in A549 cell.A, schematic diagram of B and C. B, A549 cells were seeded in 24-well plates (5 × 10^4 cells/well) and cultured in DMEM containing 2% FBS. Hc-CATH (1.25, 2.5, and 5 μM) or same volume of PBS (peptide solvent) was added to cells and incubated at 37 °C for 24 h. The level of AXL was tested by Western blot. C, A549 cells were seeded in 8-well cover slip chambers (5 × 10^4 cells/well) and cultured in DMEM containing 2% FBS. Hc-CATH (1.25, 2.5, and 5 μM) or PBS was added to cells and incubated at 37 °C for 24 h. The level of AXL was tested by immunofluorescence staining. The scale bar represents 50 μm. D, schematic diagram of E and G. E and G, A549 cells were seeded in 24-well plates (5 × 10^4 cells/well) and cultured in DMEM containing 2% FBS. Hc-CATH (1.25, 2.5, and 5 μM) or PBS was added to cells and incubated at 37 °C for 2 h. Cells were washed with PBS and incubated with ZIKV (MOI = 1). After incubation at 37 °C for 2 h, cells were washed with PBS and cultured in DMEM containing 2% FBS.\nVero, A549, or U251 cells were incubated with peptide or PBS at 37 °C for 2 h. […]\nThe effect of Hc-CATH on AXL was further confirmed in A549 and U251 cells. A549 or U251 cells were incubated with Hc-CATH (1.25, 2.5, and 5 μM) or PBS at 37 °C for 24 h, and the level of AXL was detected by WB and IF, respectively. […]"}}}
{"sequence": "KFFKRLLKSVRRAVKKFRKKPRLIGLSTLL [Hc-CATH, cathelicidin antimicrobial peptide identified from the sea snake Hydrophis cyanocinctus]", "values": [{"measurement": "ZIKV infection in A549 cells, peptide added after infection", "setting": "ZIKV [1]", "value": "did not inhibit ZIKV infection"}, {"measurement": "level of TYRO3 in Vero cells", "setting": "TYRO3", "value": "did not obviously influence"}, {"measurement": "susceptibility of A549 cells to ZIKV (NS3 protein)", "setting": "ZIKV [2]", "value": "decreased the susceptibility"}]}
